29 compounds from patent publication US7776847B2, “Benzisothiazoles useful for treating or preventing HCV infection” (priority 2005, dated 2010) can be followed below.

Molecules are shown by their SMILES. pIC50: −log10 of the molar value.

The first assay relates to HCV replicon. Briefly: HCV replicon luciferase reporter assay. It counts as cell-based. The conditions noted are these: Hepatitis C virus, Table 5; read-out: IC50. The procedure, abridged:
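Replicon-bearing dividing cells seeded at 5,000–7,500 cells/well, grown 24 h at 37° C/5% CO2, then exposed to test compound at various concentrations for a further 24–48 h. Replication/translation read by luciferase reporter; IC50 taken as compound amount giving 50% reduction in luciferase activity.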
Take `CCCCc1ccc(C(=O)NCCCNC2=NS(=O)(=O)c3ccccc32)cc1` [Compound 322, 4-butyl-N-{3-[(1,1-dioxido-1,2-benzisothiazol-3-yl)amino]propyl}benzamide]: the pIC50 was less than 5.30.
For the compound `c1ccc(CNCCCNc2nsc3ccccc23)nc1` [Compound 309, N^1-(benzo[d]isothiazol-3-yl)-N^3-(pyridin-2-ylmethyl)propane-1,3-diamine], the pIC50 was less than 5.30.
The same measure, in the same setting: for `COc1ccc(-c2ccc(CN(C)CCCNc3nsc4ccccc34)cc2)cc1` [Compound 490, N^1-(benzo[d]isothiazol-3-yl)-N^3-((4′-methoxybiphenyl-4-yl)methyl)-N^3-methylpropane-1,3-diamine] the value was more than 5.30; for `CCCC(=O)Nc1ccc2oc(C(=O)NCCCNc3nsc4ccccc34)cc2c1` [Compound 454, N-(3-(benzo[d]isothiazol-3-ylamino)propyl)-5-butyramidobenzofuran-2-carboxamide], more than 5.30; for `CCCCNc1cccc(C(=O)NCCCNc2nsc3ccccc23)n1` [Compound 448, N-(3-(benzo[d]isothiazol-3-ylamino)propyl)-6-(butylamino)picolinamide], less than 5.30.
Still for that read-out and setting: in the case of `COc1ccc(-c2ccc(CN(CCCNc3nsc4ccccc34)C(=O)CS(C)(=O)=O)cc2)cc1` [Compound 339, N-(3-(benzo[d]isothiazol-3-ylamino)propyl)-N-((4′-methoxybiphenyl-4-yl)methyl)-2-(methylsulfonyl)acetamide] it was more than 5.30; in that of `CCCNC(=O)c1ccc(C(=O)NCCNc2nsc3ccccc23)cc1` [Compound 418, N^1-(2-(benzo[d]isothiazol-3-ylamino)ethyl)-N^4-propylterephthalamide], less than 5.30; in that of `O=S(=O)(NCCCNc1nsc2ccccc12)c1cc(F)c(Br)cc1F` [Entry 221, N-(3-(benzo[d]isothiazol-3-ylamino)propyl)-4-bromo-2,5-difluorobenzenesulfonamide], more than 5.30.
Still for that read-out and setting: for `O=C(NCCNc1nsc2ccccc12)c1c(F)cccc1C(F)(F)F` [Compound 358, N-(2-(benzo[d]isothiazol-3-ylamino)ethyl)-2-fluoro-6-(trifluoromethyl)benzamide] the value was less than 5.30; for `COC(=O)c1ccc(S(=O)(=O)N(CCCNc2nsc3ccccc23)Cc2ccc(-c3ccc(OC)cc3)cc2)n1C` [Compound 317, methyl 5-(N-(3-(benzo[d]isothiazol-3-ylamino)propyl)-N-((4′-methoxybiphenyl-4-yl)methyl)sulfamoyl)-1-methyl-1H-pyrrole-2-carboxylate], more than 5.30; for `O=[N+]([O-])c1cccc(S(=O)(=O)NCCCNc2nsc3ccccc23)c1` [Compound 242, N-(3-(benzo[d]isothiazol-3-ylamino)propyl)-3-nitrobenzenesulfonamide], more than 5.30.
On to `COc1ccc(-c2ccc(CN(CCCNc3nsc4ccccc34)S(=O)(=O)c3cn(C)c(C)n3)cc2)cc1` [Compound 316, N-(3-(benzo[d]isothiazol-3-ylamino)propyl)-N-((4′-methoxybiphenyl-4-yl)methyl)-1,2-dimethyl-1H-imidazole-4-sulfonamide], for which the pIC50 was more than 5.30.
Consider `COc1ccc(-c2cccc(C(=O)NCCCNc3nsc4ccccc34)n2)c(OC)c1` [Compound 438, N-(3-(benzo[d]isothiazol-3-ylamino)propyl)-6-(2,4-dimethoxyphenyl)picolinamide], for which the pIC50 is more than 5.30.
Still for that read-out and setting: for `COc1ccc(-c2ccc(C(=O)NCCCNc3nsc4ccc(-c5ccc(OC)cc5)cc34)cc2)cc1` [Compound 406, 4′-methoxy-N-(3-(5-(4-methoxyphenyl)benzo[d]isothiazol-3-ylamino)propyl)biphenyl-4-carboxamide] the value was more than 5.30; for `COc1ccc(-c2ccc(C(=O)NCCCNc3nsc4cccc(C(F)(F)F)c34)cc2)cc1` [Compound 500, 4′-methoxy-N-(3-(4-(trifluoromethyl)benzo[d]isothiazol-3-ylamino)propyl)biphenyl-4-carboxamide], less than 5.30.
Turning to `c1ccc2c(NCCNc3nsc4ccccc34)nsc2c1` [Compound 417, N^1,N^2-di(benzo[d]isothiazol-3-yl)ethane-1,2-diamine], the pIC50 was less than 5.30.
Regarding `COc1ccccc1-c1cccc(C(=O)NCCCNc2nsc3ccccc23)c1` [Compound 384, N-(3-(benzo[d]isothiazol-3-ylamino)propyl)-6′-methoxybiphenyl-3-carboxamide], the pIC50 was more than 5.30.
Still for that read-out and setting: in the case of `COc1ccc(-c2ccc(CNCCCNc3nsc4ccc(-c5ccc(OC)cc5)cc34)cc2)cc1` [Compound 410, N^1-((4′-methoxybiphenyl-4-yl)methyl)-N^3-(5-(4-methoxyphenyl)benzo[d]isothiazol-3-yl)propane-1,3-diamine] it was more than 5.30.
For the compound `COC(=O)c1cccc(C(=O)NCCNc2nsc3ccccc23)n1` [Entry 80, Methyl 6-(2-(Benzo[d]isothiazol-3-ylamino)ethylcarbamoyl)picolinate], the pIC50 was less than 5.30.
Turning to `O=S(=O)(NCCCNc1nsc2ccccc12)c1c(F)cc(F)cc1Br` [Compound 253, N-(3-(benzo[d]isothiazol-3-ylamino)propyl)-2-bromo-4,6-difluorobenzenesulfonamide], the pIC50 was more than 5.30.
Same read-out and setting: in the case of `O=C(O)c1cccc(C(=O)NCCNc2nsc3ccccc23)n1` [Entry 81, 6-(2-(Benzo[d]isothiazol-3-ylamino)ethylcarbamoyl)picolinic Acid] it was less than 5.30; in that of `O=S(=O)(c1ccc(CNCCCNc2nsc3ccccc23)cc1)N1CCOCC1` [Compound 259, N^1-(benzo[d]isothiazol-3-yl)-N^3-(4-(morpholinosulfonyl)benzyl)propane-1,3-diamine], less than 5.30; in that of `Oc1ccc(Br)cc1CNCCCNc1nsc2ccccc12` [Compound 303, 2-((3-(benzo[d]isothiazol-3-ylamino)propylamino)methyl)-4-bromophenol], more than 5.30.
On the same count and under the same terms, for `COc1ccc(NCCCNc2nsc3ccccc23)nc1` [Compound 282, N^1-(benzo[d]isothiazol-3-yl)-N^3-(5-methoxypyridin-2-yl)propane-1,3-diamine] the value was more than 5.30; for `Cc1cccnc1NCCCNc1nsc2ccccc12` [Compound 278, N^1-(benzo[d]isothiazol-3-yl)-N^3-(3-methylpyridin-2-yl)propane-1,3-diamine], more than 5.30.
For `COc1cccc2cc(C(=O)NCCCNc3nsc4ccccc34)oc12` [Compound 435, N-(3-(benzo[d]isothiazol-3-ylamino)propyl)-7-methoxybenzofuran-2-carboxamide], the pIC50 is more than 5.30.
With `O=C(NCCNc1nsc2ccccc12)c1ccc(C(=O)NC2CC2)cc1` [Compound 427, N^1-(2-(benzo[d]isothiazol-3-ylamino)ethyl)-N^4-cyclopropylterephthalamide], the pIC50 is more than 5.30.
On the same count and under the same terms, for `O=S(=O)(NCCCNc1nsc2ccccc12)c1ccc(-c2ccccc2C(F)(F)F)cc1` [Compound 335, N-(3-(benzo[d]isothiazol-3-ylamino)propyl)-2′-(trifluoromethyl)biphenyl-4-sulfonamide] the value was more than 5.30.

The assay is the same for the next values; noted with them: Table 5; read-out: IC50.
For the compound `CC(C)(C)NS(=O)(=O)c1cccc2c(NCCCN)nsc12` [Compound 507, 3-(3-aminopropylamino)-N-tert-butylbenzo[d]isothiazole-7-sulfonamide], the pIC50 is less than 5.30.
